From PMC5320394, “Development of a Novel Formulation That Improves Preclinical Bioavailability of Tenofovir Disoproxil Fumarate” (Journal of Pharmaceutical Sciences, 2017)
Where a name gives a salt, the structure may show the parent alone. Read-outs that look alike come from different tables or passages of the source.

What was measured:
[1] = pH stability of TDF in SGF and FaSSIF; format: physicochemical; details: 1 mM TDF
Description: The pH of fasted state simulated intestinal fluid (FaSSIF)[27] was adjusted with 2M NaOH to pH of 6.8, 9, and 11. Simulated gastric fluid (SGF) was used as is at pH 1.2. TDF solutions (100 mM) were prepared in 99% dimethyl sulfoxide. TDF solutions (1 mM) were prepared by 100-fold dilution in FaSSIF and SGF. The pH of the final solution was not measured.
The TDF stability study at pH 1.2 was measured at 37°C in triplicate at 0, 15, 30, 60, 90, and 120 min. The TDF stability studies at pH 6.8, 9, and 11 were measured at 37°C in triplicate at 0, 30, 60, 120, and 240 min. Samples (5 μL) were quenched by diluting 200-fold with 4°C 0.1% formic acid (35% MeOH). These samples were analyzed by liquid chromatography tandem mass spectrometry (LC-MS/MS).

[2] = test system: porcine pancrelipase (PL); assay: Stability in SGF and FaSSIF with and without PL; format: in vitro ADME; details: 37°C
Description: Samples were incubated at 37°C and quenched with acetonitrile at 0, 15, 30, 60, 90, and 120 min. For each time point, the % TDF or % TFV-ME remaining was determined by LC-MS/MS as described below.

[3] = test system: porcine pancrelipase (PL); assay: Hydrolysis of TDF by PL and effect of enzyme inhibitors; format: biochemical; details: pig, with none, Control, 10 μM TDF, PL, 37°C, no inhibitor, read-out: TDF t1/2
Description: TDF solutions were prepared at 10 μM and incubated in triplicate at 37°C in FaSSIF containing PL at 480 U/mL with and without inhibitors. Inhibitors were added at 10% vol/vol for the oils (sesame, olive, safflower, soybean, and coconut); at 10 mM for PP, MP, and EM1; and at 0.05 mM/0.002 mM for EDTA/PMSF. Controls consisted of TDF in transport media or FaSSIF with and without PL. Samples were incubated at 37°C and quenched with acetonitrile at 10, 15, 20, and 30 min. For each time point, the % TDF or % TFV-ME remaining was determined by LC-MS/MS as described below.

[4] = test system: MDCK-MDR1 cells (P-gp); assay: MDCK-MDR1 efflux studies; format: in vitro ADME, canine; details: MDCK-MDR1, 0 μM GF918, 120 min; (SEM)
Description: (§1) MDCK-MDR1 cells (Netherlands Cancer Institute) were seeded at a density of 3 × 10^5 cells per well onto microporous polycarbonate membranes in 12-well Costar Transwell plates (Corning, Inc.). The cells were incubated for 3 days during which time they formed confluent monolayers. Monolayer integrity was checked using a Millicell-ERS instrument (Millipore) to determine the transepithelial electrical resistance (TEER) across the monolayer. […] […] Competency of the P-gp efflux transporter was confirmed by assay of propranolol (nonsubstrate) and amprenavir (substrate). Cell monolayers were incubated in triplicate with shaking (160 rpm) at 37°C for 2 h. Samples were removed from the apical and basolateral compartments after incubation and assayed for test compound concentrations by LC-MS/MS.
(§2) Conditions were similar to those used for Caco-2 analyses. Differences included the use of a Phenomenex Synergi Hydro-RP column (4 μm, 2.1 × 50 mm) at 60°C, mobile phases of aqueous 0.2% formic acid (A) and neat methanol (B), and a rapid 0.9 min gradient from 0% to 95% B.

[5] = test system: P-gp; assay: MDCK-MDR1 efflux studies; format: in vitro ADME, canine; details: dog; for Papp B→A at 120 min, 5 µM: (SEM)
Description: as §1, §2

[6] = test system: Caco-2 cell monolayers (P-gp); assay: in vitro; format: in vitro ADME; details: Caco-2, 10 μM TDF, 120 min, no inhibitor (CsA 0.00 µM)
Description: (§3) Caco-2 monolayer experiments were performed as previously described[30] with a few modifications. […] Following incubation, the media was replaced to remove dead cells and prevent the formation of multiple layers of cells settling on the filter. Media was then changed every 2-3 days and plates were used in experiments after a total of 21 days from initial seeding. Monolayer integrity was checked before and after each experiment using a Millicell-ERS instrument to determine the TEER across the monolayer and to ensure that there was no substantial change in monolayer integrity throughout the duration of an experiment. On the day of the experiment, the TEER was assessed and the media in each plate was replaced with warm HBSS (pH 7) and allowed to equilibrate (37°C, 30 min). Apical (for apical-to-basolateral [A-to-B] transport) chambers were replaced with HBSS containing 10 μM (final concentration, n = 3 reps) aqueous solution of drug and inhibitors. Samples were taken from both apical and basolateral compartments at 120 min and diluted into an appropriate solvent to allow drug quantitation using LC-MS/MS.
(§4) Samples from permeability assays were also diluted into Mobile Phase A prior to analysis.
(§5) Mobile Phase A was 3/1/96 acetonitrile/acetic acid/water and Mobile Phase B was 96/1/3 acetonitrile/acetic acid/water. Rather than isocratic elution, a gradient program was used. The gradient program held at 0% B for 1 min, ramped to 98% B from 1 to 2 min, held at 98% B from 2 to 3 min, and then returned to initial conditions. Q1/Q3 ions for TFV-ME and TDF were 404.0/270.0 and 520.1/270.0, respectively.

[7] = test system: P-gp; assay: in vitro; format: in vitro ADME; details: human, Caco-2, pH 7, with none (CsA 0.00 µM)
Description: as §3, §4, §5

[8] = test system: Caco-2 cell monolayers; format: in vitro ADME; details: Caco-2 A to B, 10 μM, 120 min, no esterase inhibitor, no P-gp inhibitor
Description: as §3, §4, §5

[9] = set-up: method as in ref 33 = [33]; 33 Arimilli M. Kim C. Bischofberger N. Dougherty J. Synthesis, in vitro biological evaluation and oral bioavailability of prodrugs of the antiretroviral agent 9-[2-(phosphonomethoxy)-propyl] adenine; details: cited from earlier work
[10] = set-up: method as in PMID 9660984; details: oral administration of TDF; mice; cited from earlier work
[11] = set-up: method as in PMID 11557462, PMID 15217303; details: humans, cited from earlier work
[12] = set-up: method as in ref 50 = [50]; 50 Center for Drug Evaluation and Research (2001) Clinical Pharmacology and Pharmaceutics Review Application Number 21-356, page 78 Available at: http://www.accessdata.fda.gov/drugsatfda_docs/nda/2001; details: rat, literature, normalized for dose; cited from earlier work
[13] = in vitro; details: human, intestinal S9 fraction
Description: (§6) TDF solutions were prepared at 10 μM in rat or human intestinal S9 fraction (0.5 mg protein/mL). Inhibitors were added to the solutions. […] Control samples included buffer, human S9, or rat S9 solutions with only TDF. Samples were incubated at 37°C for 0, 5, 10, 15, 20, and 30 min and then analyzed by LC-MS/MS for TDF, TFV-ME, TFV, and PP (to quantify stability).
(§7) Samples from S9 incubations were analyzed using the LC-MS/MS conditions described earlier for Caco-2 samples.

[14] = in vitro; details: rat, intestinal S9 fraction
Description: as §6, §7

[15] = cited from earlier work
[16] = dog, in vivo; cited from earlier work
[17] = test system: rat intestinal S9; assay: TDF stability in rat intestinal S9 fraction and effect of inhibitors; details: rat S9 0.5 mg protein/mL, 10 μM TDF, 37°C, Buffer (no inhibitor)
Description: as §6, §7

[18] = test system: human intestinal S9; assay: TDF stability in human intestinal S9 fraction and effect of inhibitors; details: human S9 0.5 mg protein/mL, 10 μM TDF, 37°C, Buffer (no inhibitor)
Description: as §6, §7

[19] = MDCK-MDR1, with none (0 µM GF918)

CC(C)OC(=O)OCOP(=O)(CO[C@H](C)Cn1cnc2c(N)ncnc21)OCOC(=O)OC(C)C [TDF, Tenofovir disoproxil fumarate]
half-life at 1 mM ([1]; FaSSIF pH 6.8, 37°C): 996 ± 204 min
half-life at 1 mM ([1]; FaSSIF pH 9, 37°C): 174 ± 12 min
half-life at 1 mM ([1]; FaSSIF pH 11, 37°C): 3.4 ± 6.1 min
half-life at 1 mM ([1]; SGF pH 1.2, 37°C): > 3300 min
half-life at 10 µM ([2]; pig, porcine pancrelipase (PL) in FaSSIF, 10 μM, PL 480 U/mL): 2 ± 2.3 min
stability in SGF and FaSSIF ([2]; without PL, up to 120 min, TDF 10 μM): stable
half-life at 10 µM ([3]; porcine pancrelipase (PL) in FaSSIF, FaSSIF): 6.35 min
half-life at 10 µM ([3]; porcine pancrelipase (PL) in transport media, transport media): 7.59 min
Papp, B to A [4]: 295.0 (6.1) nm/s
Papp A→B at 120 min, 5 µM ([5]; MDCK-MDR1, with GF918 2 µM): 2.25 ×10⁻⁶ cm/s
efflux ratio at 2 h, 5 µM ([5]; MDCK-MDR1, with GF918 2 µM): 1.5
Papp B→A at 120 min, 5 µM ([5]; MDCK-MDR1, with GF918 2 µM, MDCK-MDR1, 2 μM GF918, 120 min): 3.41 ×10⁻⁶ cm/s
Papp A→B at 120 min, 5 µM [5, 19]: 0.67 ×10⁻⁶ cm/s
efflux ratio at 2 h, 5 µM [5, 19]: 44.2
Papp B→A at 120 min, 5 µM ([5]; MDCK-MDR1, with none (0 µM GF918), MDCK-MDR1, 0 μM GF918, 120 min): 29.5 ×10⁻⁶ cm/s
TDF Papp, A to B [6]: 6.98 nm/s
Papp A→B at 120 min, 10 µM ([7]; Caco-2, 10 μM TDF, 120 min, no inhibitor (CsA 0.00 µM)): 0.7 ×10⁻⁶ cm/s
efflux ratio at 120 min, 10 µM ([7]; read-out: TDF E.R. (efflux ratio)): 12
Papp B→A at 120 min, 10 µM ([7]; read-out: TDF Papp, B to A): 8.16 ×10⁻⁶ cm/s
% Measured Basolateral, TDF (median) [8]: 0.78%
half-life ([9]; pH 2.2, 37°C): > 150 h
half-life ([9]; pH 7.4, 37°C): 8 h
oral bioavailability of TFV [10]: 20%
TDF oral bioavailability following a high fat meal ([11]; after high fat meal): 39%
oral bioavailability of TFV ([11]; oral administration of TDF): under 30%
AUC [12]: 1.49 µg·h/mL
half-life at 10 µM [13]: 0.62 ± 1.29 min
half-life at 10 µM [14]: 0.58 ± 1.79 min
pKa [15]: 3.75
partition coefficient (log P) [15]: 1.25
Biopharmaceutics Classification System class ([15]; high solubility and low permeability): class 3
water solubility ([15]; room temperature): 15.3 mg/mL
oral bioavailability of TFV [16]: 30%
TDF Rate Constant [17]: -1.200 min⁻¹
TDF Rate Constant [18]: -1.123 min⁻¹
